Measured values from PubChem BioAssay (NCI).
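Assay format: 96-well plates, 48-hour exposure. The concentration for 50% growth inhibition is given as GI50. TGI: total growth inhibition.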

How the values were obtained:
Test in all cases: DTP human tumour cell line panel, 48 h
[1] = tested on: ACHN renal
[2] = tested on: CAKI-1 renal
[3] = tested on: HT29 colon
[4] = tested on: MDA-MB-231 breast
[5] = tested on: MDA-MB-435
[6] = tested on: OVCAR-4 ovarian
[7] = tested on: SK-OV-3 ovarian
[8] = tested on: SN12C renal
[9] = tested on: SR leukemia
[10] = tested on: TK-10 renal

Structure (SMILES) | GI50 [1] [µM] | TGI [1] [µM] | GI50 [2] [µM] | TGI [2] [µM] | GI50 [3] [µM] | TGI [3] [µM] | GI50 [4] [µM] | TGI [4] [µM] | GI50 [5] [µM] | TGI [5] [µM] | GI50 [6] [µM] | TGI [6] [µM] | GI50 [7] [µM] | TGI [7] [µM] | GI50 [8] [µM] | TGI [8] [µM] | GI50 [9] [µM] | TGI [9] [µM] | GI50 [10] [µM] | TGI [10] [µM]
CCn1c(-c2nonc2N)nc2ccc(F)cc21 | > 25 | > 25 | > 25 | > 25 | > 25 | > 25 | > 25 | > 25 | > 25 | > 25 | > 25 | > 25 | > 25 | > 25 | > 25 | > 25 | > 25 | > 25 | > 25 | > 25
COc1cc(/C=C2\CC3C4CC=C5CC(N6CCCC6)CC[C@]5(C)C4CC[C@]3(C)C2OC(C)=O)ccc1OCCN1CCCC1 (stereo not given in full) | 1.73 | 3.22 | 1.55 | 3.93 | 1.82 | 4.39 | 8.82 | 22.5 | 19.6 | 35.5 | 2.41 | 5.74 | 3.28 | 8.92 | 4.01 | 15.7 | 1.83 | 4.01 | 14.9 | 29.2
Cc1ccc2/c(=C/c3ccc(N(C)C)cc3)c3cc(-c4ccccc4)[n+](C)n3c2c1 | 0.175 | – | 1.57 | 6.58 | 0.0411 | > 100 | 0.0337 | 1.06 | 0.037 | 1.66 | 0.816 | 20.2 | – | – | – | – | < 0.01 | – | 0.266 | 2.36
CCCNCc1cc(C)cc2c1nc(N1CCNCC1)n2Cc1cc(C)c(F)c(C)c1 | 4.37 | 15.5 | 14.4 | 27.6 | 2.09 | 5.29 | 1.61 | 3.8 | 1.7 | 3.21 | 7.12 | 21.8 | 15.8 | 29.4 | 7.57 | 21.6 | 1.22 | 3.39 | 14.3 | 28
CNc1nc(NC2CCCC2)nc(Sc2ccc(OC)cc2)n1 | > 10 | > 10 | > 10 | > 10 | > 10 | > 10 | > 10 | > 10 | > 10 | > 10 | > 10 | > 10 | > 10 | > 10 | > 10 | > 10 | > 10 | > 10 | > 10 | > 10
Cc1sc(C)c(-c2ccc(CO)o2)c1-c1ccc(CO)o1 | 64.2 | > 100 | 1.16 | > 100 | 0.498 | > 100 | 51 | > 100 | > 100 | > 100 | 0.299 | > 100 | 16.5 | > 100 | 96.6 | > 100 | > 77.9 | > 100 | 0.116 | 0.426
COc1ccc2c(-c3cc4ccccc4o3)cc(=O)oc2c1 | – | > 100 | – | > 87.4 | – | > 100 | – | > 100 | – | > 100 | – | 71.8 | – | 52.1 | – | > 100 | – | > 100 | – | 50.8
Cc1c(-c2nc(N)nc(C3CC3)c2C)nc(N)nc1C1CC1 | – | > 100 | – | > 100 | – | > 100 | – | > 100 | – | > 100 | – | > 100 | – | > 100 | – | > 100 | – | > 100 | – | > 100
COc1ccc2c(c1)[C@@]13CCN4CC5=CCO[C@H]6CC(=O)N2[C@H]1[C@H]6[C@H]5C[C@H]43 | – | > 100 | – | > 100 | – | > 100 | – | > 100 | – | > 100 | – | > 100 | – | > 100 | – | > 100 | – | > 100 | – | > 100
Clc1ccc(OCc2nnc3n2N=C(c2ccc(Cl)cc2Cl)CS3)c(Cl)c1 | 20.5 | 49.9 | 26.6 | 83 | 24.4 | 83.3 | 14.9 | 38.3 | 24.3 | > 100 | 28.1 | > 100 | 43 | > 100 | 14.2 | 32.3 | 17.3 | 46.5 | 25.1 | > 100
CN(C)CCNC(=O)Nc1c(C#N)[n+]([O-])c2cc(Cl)c(Cl)cc2[n+]1[O-] | 32.9 | > 100 | 37.6 | > 100 | 27.3 | > 100 | 19.9 | 56.9 | 31 | > 100 | 17.8 | > 100 | 21.1 | 97.7 | 17.2 | > 100 | 13.4 | > 100 | 53.7 | > 100
CC(=O)[CH-]C(C)=O.CC(=O)[CH-]C(C)=O.N=CC=N.[Sn+2] | 3.2 | 9.77 | 2.54 | 7.23 | 3.41 | 10.8 | 2.72 | 9.87 | 2.59 | 7.43 | 2.62 | 10.5 | 8.74 | 21.7 | 2.9 | 9.14 | 1.06 | 5.3 | 4.48 | 10.7
C=CC(=O)Nc1cccc(Nc2nc(Nc3ccc(OCCOC)cc3)ncc2F)c1 | 0.454 | 2.84 | 0.511 | 2.46 | 2.6 | 16.3 | 2.85 | 24.7 | 2.87 | 15.7 | 0.824 | 17.1 | 0.533 | 3.17 | 1.77 | 31.4 | 3.41 | > 100 | 0.99 | 3.86
COc1ccc(C2C(C#N)=C(N)OC3=C2CCCc2ccc(F)cc23)cc1OC (stereo not given) | 19.9 | 41.7 | 34.2 | 65.3 | 29.6 | > 72.4 | 17.3 | 45.5 | 12.9 | > 53.3 | 23 | 68 | 25.4 | 57.7 | 19.7 | 39.5 | > 100 | > 100 | 28.8 | 56.3
O=P(O)(O)C(O)(Cn1ccnc1)P(=O)(O)O | > 46.2 | > 84.8 | > 52.9 | > 100 | > 90.6 | > 100 | > 40.6 | > 57 | > 100 | > 100 | > 100 | > 100 | > 81.1 | > 100 | > 57.7 | > 100 | > 100 | > 100 | > 36.2 | > 100
Cc1ccc([N+](=O)[O-])c2c(NCCCN(C)C)ccnc12 | – | > 100 | – | > 100 | – | > 90.7 | – | > 100 | – | 45.1 | – | > 76.9 | – | – | – | > 100 | – | > 100 | – | > 100
COc1ccc(NC2=C(Br)C(=O)C(C)=C(C)C2=O)cc1 | 2.87 | 8.76 | 1.72 | 3.11 | 27.4 | 79.6 | 1.88 | 3.96 | 1.91 | 3.49 | 1.6 | 2.97 | 12.3 | 26.1 | 11 | 23.2 | 3.21 | > 100 | 25.2 | 40.9
CCN(Cc1c(F)cccc1F)c1ccc(CO)c(Cl)c1 | 20.8 | > 74.5 | 0.167 | 1.77 | 0.747 | 19.5 | 13 | 38.3 | 14.8 | 40.9 | 0.0429 | 0.319 | 1.65 | 9.91 | 15.4 | 58.5 | 16.5 | 49.2 | – | –
N#Cc1c(-c2ccccc2)nc2c(c(-c3ccccc3)nn2-c2ccccc2)c1-c1ccc(O)cc1 | 2.24 | 5.89 | 2.48 | 6.7 | 2.51 | 6.44 | 1.7 | 3.31 | 1.86 | 3.71 | 1.95 | 4.66 | 2.87 | 8.48 | 1.64 | 3.04 | 2.95 | > 100 | 2.89 | 8.19
Cc1noc(C)c1-c1ccc2[nH]c(=O)n3c2c1OC[C@@H]3c1ccccn1 | 1.5 | > 100 | 0.151 | > 100 | 0.415 | > 100 | 0.868 | > 100 | 3 | > 100 | 1.03 | > 100 | 0.634 | > 100 | 21.4 | > 100 | 0.267 | > 100 | 0.312 | > 100
NC(N)=N/N=C/c1c(-c2ccccn2)nc2sc(Cl)cn12 | 7.49 | 15.3 | 8.59 | 15.6 | – | – | 5.64 | 11.7 | 7.56 | 14.2 | – | – | 9.1 | 17.9 | 6.84 | 13.3 | 0.845 | 3.05 | 8.13 | 15.1
Cn1c(N)nc2c(nc(OCc3ccccc3)n2C2OC(CO)C(O)C2O)c1=O (stereo not given) | – | > 100 | – | > 100 | – | > 100 | – | > 100 | – | > 100 | – | > 100 | – | > 100 | – | > 100 | – | > 100 | – | > 100
CNC(=O)c1ccc(-c2cnc3ncc(Cc4ccc5ncccc5c4)n3n2)cc1F | > 100 | > 100 | > 100 | > 100 | > 100 | > 100 | 40.8 | > 100 | > 100 | > 100 | > 100 | > 100 | > 100 | > 100 | > 100 | > 100 | > 100 | > 100 | > 100 | > 100
Cc1c(C(=O)NN)nnn1-c1ccnc2c(C(F)(F)F)cccc12 | > 100 | > 100 | > 100 | > 100 | – | – | > 100 | > 100 | > 100 | > 100 | 12 | 89.4 | > 100 | > 100 | 76.5 | > 100 | > 100 | > 100 | > 100 | > 100
Cc1ccc(C(=O)CC(Sc2cccc(Cl)c2Cl)c2ccc(Cl)cc2)cc1C (stereo not given) | – | – | 21.6 | 45.8 | – | – | 17.9 | 39 | 20 | 50 | 34.5 | > 100 | 23.3 | 59.7 | 16.1 | 32.7 | 7.23 | > 100 | 17.2 | 35
CCN(CCO)CCNc1ccc(C)c2sc3cc(Cl)ccc3c(=O)c12 | 1.61 | 3.19 | 1.72 | 4.03 | 1.28 | 2.62 | 0.783 | 2.24 | 0.891 | 2.26 | 2.18 | 5.15 | 1.61 | 3.09 | 1.47 | 3.11 | 0.751 | 2.78 | 1.8 | 3.31
CCCSc1cc(Cl)nc(N)n1 | > 100 | > 100 | 90.7 | > 100 | > 100 | > 100 | > 100 | > 100 | > 100 | > 100 | > 100 | > 100 | > 100 | > 100 | > 100 | > 100 | > 100 | > 100 | > 100 | > 100
Nc1ccc(SC23CC4CC(CC(C4)C2)C3)cc1 | – | > 100 | – | > 100 | – | > 100 | – | > 100 | – | > 100 | – | – | – | > 100 | – | > 100 | – | > 100 | – | > 100
